Laboratory results from ChEMBL document CHEMBL5512620, “Design and synthesis of forsythin derivatives as anti-inflammatory agents for acute lung injury” (Eur J Med Chem, 2024).
Activity calls are given as the source filed them. The calls are words filed in the database; no cut-off is given here.

Columns and labels:
RAW264.7 [1] = assay: Cytotoxicity activity mouse RAW264.7 cells assessed as effect on cell viability at 25 uM incubated for 24 hrs by MTT assay; format: toxicity, cell-based; conditions: raw264.7, 24 h
[2] = target: Transcription factor p65 (Mus musculus) (UniProt Q04207); assay: Inhibition of NF-kappaB p65 phosphorylation in mouse RAW264.7 cells at 6.25 to 25 uM pretreated with compound for 1 hr followed by LPS-induction and measured after 24 hrs by Western blot analysis; format: cell-based; conditions: dose 6.25-25 µM, time 25.0 hrs
Sequence of Transcription factor p65 (Mus musculus) (Q04207 whole entry): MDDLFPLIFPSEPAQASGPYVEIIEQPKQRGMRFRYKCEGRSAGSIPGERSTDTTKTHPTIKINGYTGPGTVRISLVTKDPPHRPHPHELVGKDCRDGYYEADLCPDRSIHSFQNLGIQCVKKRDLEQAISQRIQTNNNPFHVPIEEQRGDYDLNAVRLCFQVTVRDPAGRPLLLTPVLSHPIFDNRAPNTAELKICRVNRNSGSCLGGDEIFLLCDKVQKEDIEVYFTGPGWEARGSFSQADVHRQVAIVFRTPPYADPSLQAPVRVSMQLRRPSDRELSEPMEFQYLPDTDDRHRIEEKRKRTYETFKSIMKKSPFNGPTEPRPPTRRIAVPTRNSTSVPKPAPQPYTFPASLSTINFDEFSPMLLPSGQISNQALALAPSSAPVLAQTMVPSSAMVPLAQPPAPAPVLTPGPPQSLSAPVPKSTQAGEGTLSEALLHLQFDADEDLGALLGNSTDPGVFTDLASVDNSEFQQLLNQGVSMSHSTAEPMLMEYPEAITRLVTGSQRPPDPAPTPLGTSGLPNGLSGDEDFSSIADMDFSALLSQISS

RAW264.7 [3] = assay: Antiinflammatory activity in mouse RAW264.7 cells assessed as reduction in LPS-induced IL-6 production preincubated with compound for 1 hr followed by LPS-induction and measured after 24 hrs by ELISA analysis relative to control; format: functional, cell-based
RAW264.7 [4] = assay: Antiinflammatory activity in mouse RAW264.7 cells assessed as reduction in LPS-induced JNK phosphorylation at 6.25 to 25 uM preincubated with compound for 1 hr followed by LPS-induction and measured after 24 hrs by Western blot analysis; format: functional, cell-based; conditions: dose 6.25-25 µM, time 25.0 hrs
Mus musculus [5] = assay: Antiinflammatory activity in LPS-induced po dosed acute lung injury BALB/c mouse model assessed as inhibition of COX-2 expression administered for 3 days followed by LPS-induction for 1 hr and measured after 6 hrs by Western blot analysis; format: functional, organism-based; conditions: dose 5-20 mg/kg, time 79.0 hrs
RAW264.7 [6] = assay: Antiinflammatory activity in mouse RAW264.7 cells assessed as inhibition of LPS-induced IL-6 secretion by measuring fold change at 25 uM preincubated with compound for 1 hr followed by LPS-induction and measured after 24 hrs by ELISA analysis relative to Forsythin; format: functional; conditions: time 25 hrs
RAW264.7 [7] = assay: Antiinflammatory activity in mouse RAW264.7 cells assessed as reduction in LPS-induced TNF-alpha production preincubated with compound for 1 hr followed by LPS-induction and measured after 24 hrs by ELISA analysis relative to control; format: functional, cell-based
Mus musculus [8] = assay: Antiinflammatory activity in LPS-induced acute lung injury BALB/c mouse model assessed as downregulation of TNF-alpha level in BALF at 5 to 20 mg/kg, po administered for 3 days followed by LPS-induction for 1 hr and measured after 6 hrs by ELISA analysis; format: functional, organism-based; conditions: dose 5-20 mg/kg, time 79.0 hrs
Mus musculus [9] = assay: Antiinflammatory activity in LPS-induced acute lung injury BALB/c mouse model assessed as reduction in NO production in BALF at 5 to 20 mg/kg, po administered for 3 days followed by LPS-induction for 1 hr and measured after 6 hrs by Griess reagent based analysis; format: functional, organism-based; conditions: dose 5-20 mg/kg, time 79.0 hrs
Mus musculus [10] = assay: Antiinflammatory activity in LPS-induced po dosed acute lung injury BALB/c mouse model assessed as inhibition of iNOS expression administered for 3 days followed by LPS-induction for 1 hr and measured after 6 hrs by Western blot analysis; format: functional, organism-based; conditions: dose 5-20 mg/kg, time 79.0 hrs
Mus musculus [11] = assay: Antiinflammatory activity in LPS-induced acute lung injury BALB/c mouse model assessed as improvement in alveolar structure at 20 mg/kg, po administered for 3 days followed by LPS-induction for 1 hr and measured after 6 hrs by H and E staining based analysis; format: functional, organism-based; conditions: time 79.0 hrs
RAW264.7 [12] = assay: Anti-inflammatory activity in mouse RAW264.7 cells assessed as inhibition of LPS-induced iNOS […] expression at 25 uM preincubated with compound for 1 hr followed by LPS stimulation and measured after 24 hrs by Western blot analysis; format: functional, cell-based; conditions: time 25.0 hrs
Mus musculus [13] = assay: Antiinflammatory activity in LPS-induced acute lung injury BALB/c mouse model assessed as reduction in W/D weight gain ratio in lung at 5 to 20 mg/kg, po administered for 3 days followed by LPS-induction for 1 hr and measured after 6 hrs; format: functional, organism-based; conditions: dose 5-20 mg/kg, time 79.0 hrs
RAW264.7 [14] = assay: Antiinflammatory activity in mouse RAW264.7 cells assessed as reduction in LPS-induced p38 phosphorylation at 6.25 to 25 uM preincubated with compound for 1 hr followed by LPS-induction and measured after 24 hrs by Western blot analysis; format: functional, cell-based; conditions: dose 6.25-25 µM, time 25.0 hrs
RAW264.7 [15] = assay: Inhibition of IkappaB phosphorylation in mouse RAW264.7 cells at 6.25 to 25 uM pretreated with compound for 1 hr followed by LPS-induction and measured after 24 hrs by Western blot analysis; format: cell-based; conditions: dose 6.25-25 µM, time 25.0 hrs
Mus musculus [16] = assay: Antiinflammatory activity in LPS-induced acute lung injury BALB/c mouse model assessed as reduction in cell infiltration in lung at 20 mg/kg, po administered for 3 days followed by LPS-induction for 1 hr and measured after 6 hrs by H and E staining based analysis; format: functional, organism-based; conditions: time 79.0 hrs
[17] = target: Transcription factor p65 (Mus musculus) (UniProt Q04207); assay: Inhibition of NF-kappaB signaling pathway in LPS-induced mouse RAW264.7 cells assessed as reduction in phosphorylated NF-kappaB to p65 relative expression at 6.25 to 25 uM pretreated with compound for 1 hr followed by LPS-induction and measured after 24 hrs by Western blot analysis; format: cell-based; conditions: dose 6.25-25 µM, time 25.0 hrs
RAW264.7 [18] = assay: Anti-inflammatory activity in mouse RAW264.7 cells assessed as inhibition of LPS-induced COX-2 […] expression at 25 uM preincubated with compound for 1 hr followed by LPS stimulation and measured after 24 hrs by Western blot analysis; format: functional, cell-based; conditions: time 25.0 hrs
Mus musculus [19] = assay: Antiinflammatory activity in LPS-induced acute lung injury BALB/c mouse model assessed as downregulation of IL-6 level in BALF at 5 to 20 mg/kg, po administered for 3 days followed by LPS-induction for 1 hr and measured after 6 hrs by ELISA analysis; format: functional, organism-based; conditions: dose 5-20 mg/kg, time 79.0 hrs
RAW264.7 [20] = assay: Antiinflammatory activity in mouse RAW264.7 cells assessed as reduction in LPS-induced NO release preincubated with compound for 1 hr followed by LPS-induction and measured after 24 hrs by ELISA analysis relative to control; format: functional, cell-based
Mus musculus [21] = assay: Antiinflammatory activity in LPS-induced acute lung injury BALB/c mouse model assessed as downregulation of IL-6 level in BALF at 20 mg/kg, po administered for 3 days followed by LPS-induction for 1 hr and measured after 6 hrs by ELISA analysis; format: functional, organism-based; conditions: time 79.0 hrs
RAW264.7 [22] = assay: Antiinflammatory activity in mouse RAW264.7 cells assessed as reduction in LPS-induced ERK phosphorylation at 6.25 to 25 uM preincubated with compound for 1 hr followed by LPS-induction and measured after 24 hrs by Western blot analysis; format: functional, cell-based; conditions: dose 6.25-25 µM, time 25.0 hrs
Mus musculus [23] = assay: Antiinflammatory activity in LPS-induced acute lung injury BALB/c mouse model assessed as reduction in lung edema at 20 mg/kg, po administered for 3 days followed by LPS-induction for 1 hr and measured after 6 hrs by H and E staining based analysis; format: functional, organism-based; conditions: time 79.0 hrs
RAW264.7 [24] = assay: Antiinflammatory activity in mouse RAW264.7 cells assessed as inhibition of LPS-induced IL-6 release at 25 uM preincubated with compound for 1 hr followed by LPS-induction and measured after 24 hrs by ELISA analysis; format: functional, cell-based; conditions: time 25.0 hrs
Mus musculus [25] = assay: Antiinflammatory activity in LPS-induced acute lung injury BALB/c mouse model assessed as reduction in NO production in BALF at 20 mg/kg, po administered for 3 days followed by LPS-induction for 1 hr and measured after 6 hrs by Griess reagent based analysis; format: functional, organism-based; conditions: time 79.0 hrs
RAW264.7 [26] = assay: Antiinflammatory activity in mouse RAW264.7 cells assessed as inhibition of LPS-induced IL-6 production at 25 uM preincubated with compound for 1 hr followed by LPS-induction and measured after 24 hrs by ELISA analysis relative to control; format: functional; conditions: time 25 hrs
RAW264.7 [27] = assay: Anti-inflammatory activity in mouse RAW264.7 cells assessed as inhibition of LPS-induced COX-2 […] expression preincubated with compound for 1 hr followed by LPS stimulation and measured after 24 hrs by Western blot analysis; format: functional, cell-based; conditions: dose 6.25-25 µM, time 25.0 hrs
RAW264.7 [28] = assay: Anti-inflammatory activity in mouse RAW264.7 cells assessed as inhibition of LPS-induced iNOS […] expression preincubated with compound for 1 hr followed by LPS stimulation and measured after 24 hrs by Western blot analysis; format: functional, cell-based; conditions: dose 6.25-25 µM, time 25.0 hrs
Mus musculus [29] = assay: Antiinflammatory activity in LPS-induced acute lung injury BALB/c mouse model assessed as downregulation of TNF-alpha level in BALF at 20 mg/kg, po administered for 3 days followed by LPS-induction for 1 hr and measured after 6 hrs by ELISA analysis; format: functional, organism-based; conditions: time 79.0 hrs
RAW264.7 [30] = assay: Inhibition of NF-kappaB signaling pathway in LPS-induced mouse RAW264.7 cells assessed as reduction in phosphorylated IkappaB to IkappaB relative expression at 6.25 to 25 uM pretreated with compound for 1 hr followed by LPS-induction and measured after 24 hrs by Western blot analysis; format: cell-based; conditions: dose 6.25-25 µM, time 25.0 hrs

COc1ccc([C@@H]2OC[C@H]3[C@@H]2CO[C@@H]3c2ccc(O[C@H]3O[C@H](COC(=O)[C@H](Cc4c[nH]c5ccccc45)NC(=O)OC(C)(C)C)[C@@H](O)[C@H](O)[C@H]3O)c(OC)c2)cc1OC
Activity (RAW264.7 [1]): Non-Toxic

COc1ccc([C@@H]2OC[C@H]3[C@@H]2CO[C@@H]3c2ccc(O[C@H]3O[C@H](COC(=O)c4cn(-c5ccc(Cl)cc5)nn4)[C@@H](O)[C@H](O)[C@H]3O)c(OC)c2)cc1OC
Activity (RAW264.7 [1]): Non-Toxic

COc1ccc([C@@H]2OC[C@H]3[C@@H]2CO[C@@H]3c2ccc(O[C@H]3O[C@H](COC(=O)c4cn(-c5ccc(C)cc5)nn4)[C@@H](O)[C@H](O)[C@H]3O)c(OC)c2)cc1OC
Activity (RAW264.7 [1]): Non-Toxic

COc1ccc([C@@H]2OC[C@H]3[C@@H]2CO[C@@H]3c2ccc(O[C@H]3O[C@H](COC(=O)CNC(=O)OC(C)(C)C)[C@@H](O)[C@H](O)[C@H]3O)c(OC)c2)cc1OC
Activity (RAW264.7 [1]): Non-Toxic

COc1ccc(-n2cc(C(=O)OC[C@H]3O[C@H](Oc4ccc([C@H]5OC[C@H]6[C@@H]5CO[C@H]6c5ccc(OC)c(OC)c5)cc4OC)[C@H](O)[C@@H](O)[C@@H]3O)nn2)cc1
Activity (RAW264.7 [1]): Non-Toxic

COc1ccc([C@H]2OC[C@@H]3[C@H]2CO[C@@H]3c2ccc(O[C@@H]3O[C@@H](COC(=O)c4nccc5ccccc45)[C@H](O)[C@@H](O)[C@@H]3O)c(OC)c2)cc1OC (stereo in doubt)
Activity (RAW264.7 [1]): Non-Toxic

COc1ccc([C@H]2OC[C@@H]3[C@H]2CO[C@@H]3c2ccc(O[C@@H]3O[C@@H](COC(=O)c4cnc5ccccc5c4)[C@H](O)[C@@H](O)[C@@H]3O)c(OC)c2)cc1OC (stereo in doubt)
Activity (RAW264.7 [1]): Non-Toxic

COc1ccc([C@@H]2OC[C@H]3[C@@H]2CO[C@@H]3c2ccc(O[C@H]3O[C@H](COC(=O)[C@H](Cc4ccccc4)NC(=O)OC(C)(C)C)[C@@H](O)[C@H](O)[C@H]3O)c(OC)c2)cc1OC
inhibition [2]: Active
IC50 (RAW264.7 [3]): 4.93 µM
Activity (RAW264.7 [4]): Active
Activity (Mus musculus [5]): Dose-Dependent Effect
fold change (FC) (RAW264.7 [6]): 7.5
IC50 (RAW264.7 [7]): > 25 µM
Activity (Mus musculus [8]): Active
Activity (Mus musculus [9]): Active
Activity (RAW264.7 [1]): Non-Toxic
Activity (Mus musculus [10]): Dose-Dependent Effect
Activity (Mus musculus [11]): Active
Activity (RAW264.7 [12]): Active
Activity (Mus musculus [13]): Active
Activity (RAW264.7 [14]): inactive
inhibition (RAW264.7 [15]): Active
Activity (Mus musculus [16]): Active
inhibition [17]: Active
Activity (RAW264.7 [18]): Active
Activity (Mus musculus [19]): Active
IC50 (RAW264.7 [20]): 10.9 µM
Activity (Mus musculus [21]): Active
Activity (RAW264.7 [22]): Active
Activity (Mus musculus [23]): Active
Activity (RAW264.7 [24]): Active
Activity (Mus musculus [25]): Active
inhibition at 25 µM (RAW264.7 [26]): 91.8%
Activity (RAW264.7 [27]): Dose-Dependent Effect
Activity (RAW264.7 [28]): Dose-Dependent Effect
Activity (Mus musculus [29]): Active
inhibition (RAW264.7 [30]): Active
